Results on 3 compounds are retold here after patent US8669228B2 (Indiana University Research and Technology Corporation, priority 2007, dated 2014).

The nature of this data set: Glucagon solubility assay (UV absorbance of supernatant after pH adjustment). Type of data set: physicochemical. The note with it: for solubility relative to native glucagon: pH values of 5.5 and 7.0, after 60 hours at 25° C. (FIG. 3) or 24 hours at 25° C. then 24 hours at 4° C. (FIG. 4).

Where no end group is shown, it is not given here.

Turning to “Glucagon, Cys17PEG5K: Glucagon Cys17 (1-29) reacted with methoxy poly(ethyleneglycol) maleimide avg. M.W. 5000”, the “Percent Soluble” value (pH 7) turned out to be 94%.
For “HSQGTFTSDYSKYLESRRAQDFVQWLMDT [D28, E15]”, the “solubility relative to native glucagon” value is recorded as “superior solubility”.
Regarding `CSCC[C@H](NC(=O)[C@H](CC(C)C)NC(=O)[C@H](Cc1c[nH]c2ccccc12)NC(=O)[C@H](CCC(N)=O)NC(=O)[C@@H](NC(=O)[C@H](Cc1ccccc1)NC(=O)[C@H](CC(=O)O)NC(=O)[C@H](CCC(N)=O)NC(=O)[C@H](C)NC(=O)[C@H](CCCNC(=N)N)NC(=O)[C@H](CCCNC(=N)N)NC(=O)[C@H](CO)NC(=O)[C@H](CC(=O)O)NC(=O)[C@H](CC(C)C)NC(=O)[C@H](Cc1ccc(O)cc1)NC(=O)[C@H](CCCCN)NC(=O)[C@H](CO)NC(=O)[C@H](Cc1ccc(O)cc1)NC(=O)[C@H](CC(=O)O)NC(=O)[C@H](CO)NC(=O)[C@@H](NC(=O)[C@H](Cc1ccccc1)NC(=O)[C@@H](NC(=O)CNC(=O)[C@H](CCC(N)=O)NC(=O)[C@H](CO)NC(=O)[C@@H](N)Cc1c[nH]cn1)[C@@H](C)O)[C@@H](C)O)C(C)C)C(=O)N[C@@H](CC(=O)O)C(=O)N[C@@H](CCC(=O)O)C(=O)O` [D28, E29], the “solubility relative to native glucagon” value was “superior solubility”.
